One series concerns Ba/F3 ETV6-NTRK2-G639R. The series can be described thus: Cell proliferation inhibition (CellTiter-Glo), Ba/F3 ETV6-NTRK2-G639R. The class given is cell-based. To be noted: Mus musculus, BaF3, 72 h, read-out: IC50 proliferation Ba/F3 ETV6-NTRK2-G639R. On the procedure:
(§1) 4. Inhibitory Effect of Compounds on the Proliferation of TRK Fusion and Mutant Stable Cell Lines (IC50)
(§2) Six cell lines including Ba/F3 LMNA-NTRK1-WT, Ba/F3 LMNA-NTRK1-G595R, Ba/F3 ETV6-NTRK2-WT, Ba/F3 ETV6-NTRK2-G639R, Ba/F3 ETV6-NTRK2-G639R and Ba/F3 ETV6-NTRK3-G623R were used in this experiment. For the six cell lines, the maximum test concentration of the compound was 1 μM, 1 μM, 10 μM, […], 1 μM and 10 μM, were 3.16-fold gradient diluted to obtain 9 samples.
(§3) The operation is described briefly as follows:
(§4) The cells in logarithmic growth phase were harvested to ensure that the cell viability was above 90%. 3000 cell/well were seeded in 96-well plate (Corning, Cat #3603). The cells were incubated overnight with 5% CO2, 95% humidity at 37° C. Then each well containing the cells of the 96-well plate was added the compound solutions, 3 wells for each compound solution, and continued to incubate for another 72 hrs. Then CellTiter-Glo® kit (Promega, Cat #G7572) was used to do the detection. First, the CTG reagent was melted and the cell plate was balanced to room temperature. The same volume of CTG solution was added into each well and vibrated on the shaker for 5 minutes to lyse the cells. The cell plate was kept at room temperature for 20 minutes to stabilize the luminescent signal. The luminescent value was collected by SpectraMax microplate detector (MD, 2104-0010A). […] Cell survival rate (%)=(1umdrug−1ummedium)/(1umcell−lummedium)×100%

The nature of series [1]: Blood-to-brain distribution in rats. The class given is in vivo. As to conditions: male, SD, rat, 10 mg/kg single oral gavage. The protocol: 7. Blood-to-Brain Distribution
Male SD rats were grouped, each group having 12 rats. Each group was given the compound of Examples (10 mg/kg) by single oral gavage. The animals were fasted overnight from 10 hours before administration to 4 hours after administration. The rats were killed at 0.5, 1, 4 and 12 hours after administration, and blood and brain tissues were collected. The samples were centrifuged at 4000 rpm at 4° C. for 5 min and plasma was transferred into the centrifuge tube and stored at −80° C. until analysis. The extract from the plasma extracted by protein precipitation was analyzed by LC/MS/MS.

The test system of the next series is Ba/F3 ETV6-NTRK3-WT. Kind of series: Cell proliferation inhibition (CellTiter-Glo), Ba/F3 ETV6-NTRK3-WT. The class given is cell-based. To be noted: Mus musculus, BaF3, 72 h, read-out: IC50 proliferation Ba/F3 ETV6-NTRK3-WT.
The test system of the next series is Ba/F3 LMNA-NTRK3-G623R. The series can be described thus: Cell proliferation inhibition (CellTiter-Glo), Ba/F3 LMNA-NTRK3-G623R. The class given is cell-based. To be noted: Mus musculus, BaF3, 72 h, read-out: IC50 proliferation Ba/F3 LMNA-NTRK3-G623R.
For the next series, the system named is Ba/F3 ETV6-NTRK2-WT. The series can be described thus: Cell proliferation inhibition (CellTiter-Glo), Ba/F3 ETV6-NTRK2-WT. In kind it is cell-based. As to conditions: Mus musculus, BaF3, 72 h, read-out: IC50 proliferation Ba/F3 ETV6-NTRK2-WT. On the procedure:
as §1, §2, §3, §4

Series [2] in a line: Pharmacokinetic analysis in rats. To be noted: male, SD, plasma; rat, PO, 5 mg/kg. The class given is in vivo, Male SD rats. The protocol: 6. Pharmacokinetic Analysis
Male SD rats were grouped, each group having 3 rats. […] Animals were fasted overnight from 10 hours before administration to 4 hours after administration. Blood samples were collected at 0.25, 0.5, 1, 2, 4, 8 and 24 hours after administration in the oral group and at 0.083, 0.25, 0.5, 1, 2, 4, 8 and 24 hours after injection in the intravenous group. After isoflurane anesthesia, 0.3 ml whole blood collected through the fundus vein plexus was put into the heparin anticoagulant tube. The sample was centrifuged at 4° C. at 4000 rpm for 5 min. The plasma was transferred into the centrifuge tube and stored at −80° C. until analysis. The extract from the plasma extracted by protein precipitation was analyzed by LC/MS/MS.

A further series has as its target TRKB (Homo sapiens (Human), UniProt Q16620). The series can be described thus: Mobility shift assay, TRKB kinase. As to conditions: read-out: TRKB IC50, ATP 71.2 μM.
For another series, the target named is TRKC (Homo sapiens (Human), UniProt Q16288). Kind of series: Mobility shift assay, TRKC kinase. As to conditions: read-out: TRKC IC50, ATP 44.4 μM.
Chain of TRKC (Q16288 other isoform, or with tags, fused parts or gaps isoform Q16288-3): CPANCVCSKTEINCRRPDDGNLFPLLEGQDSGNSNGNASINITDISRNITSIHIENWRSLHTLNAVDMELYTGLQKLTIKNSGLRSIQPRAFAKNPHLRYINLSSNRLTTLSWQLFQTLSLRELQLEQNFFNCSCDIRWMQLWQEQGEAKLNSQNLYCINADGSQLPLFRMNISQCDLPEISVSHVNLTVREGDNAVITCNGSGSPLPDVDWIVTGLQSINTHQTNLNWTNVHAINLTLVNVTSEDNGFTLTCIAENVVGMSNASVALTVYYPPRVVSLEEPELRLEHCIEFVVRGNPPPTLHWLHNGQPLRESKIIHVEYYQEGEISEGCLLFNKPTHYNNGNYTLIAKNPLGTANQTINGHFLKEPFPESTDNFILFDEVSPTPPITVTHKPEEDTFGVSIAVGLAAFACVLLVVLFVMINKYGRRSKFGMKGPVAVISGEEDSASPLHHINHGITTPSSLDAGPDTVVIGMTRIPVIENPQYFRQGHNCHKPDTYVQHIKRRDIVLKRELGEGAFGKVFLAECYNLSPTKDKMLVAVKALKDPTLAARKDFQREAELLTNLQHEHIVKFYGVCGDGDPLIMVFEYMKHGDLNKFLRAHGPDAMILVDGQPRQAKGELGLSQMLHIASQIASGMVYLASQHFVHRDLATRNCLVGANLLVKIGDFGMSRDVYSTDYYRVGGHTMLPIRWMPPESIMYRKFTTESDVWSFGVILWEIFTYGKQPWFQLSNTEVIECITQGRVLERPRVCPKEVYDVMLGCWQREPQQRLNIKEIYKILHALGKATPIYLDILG
The target in a further series is ROS1 (Homo sapiens (Human), UniProt P08922). Kind of series: Mobility shift assay, ROS1 kinase. In kind it is biochemical. As to conditions: ATP 26.7 μM. An excerpt: (§5) The operation is described as follows:
(§6) Conversion %_Sample: conversion rate of sample;

For series [3], the target named is T1, TRKA (Homo sapiens (Human), UniProt P04629). Kind of series: Mobility shift assay, TRKA kinase. In kind it is biochemical. As to conditions: ATP 47.8 μM.
T1 sequence (P04629 33-796): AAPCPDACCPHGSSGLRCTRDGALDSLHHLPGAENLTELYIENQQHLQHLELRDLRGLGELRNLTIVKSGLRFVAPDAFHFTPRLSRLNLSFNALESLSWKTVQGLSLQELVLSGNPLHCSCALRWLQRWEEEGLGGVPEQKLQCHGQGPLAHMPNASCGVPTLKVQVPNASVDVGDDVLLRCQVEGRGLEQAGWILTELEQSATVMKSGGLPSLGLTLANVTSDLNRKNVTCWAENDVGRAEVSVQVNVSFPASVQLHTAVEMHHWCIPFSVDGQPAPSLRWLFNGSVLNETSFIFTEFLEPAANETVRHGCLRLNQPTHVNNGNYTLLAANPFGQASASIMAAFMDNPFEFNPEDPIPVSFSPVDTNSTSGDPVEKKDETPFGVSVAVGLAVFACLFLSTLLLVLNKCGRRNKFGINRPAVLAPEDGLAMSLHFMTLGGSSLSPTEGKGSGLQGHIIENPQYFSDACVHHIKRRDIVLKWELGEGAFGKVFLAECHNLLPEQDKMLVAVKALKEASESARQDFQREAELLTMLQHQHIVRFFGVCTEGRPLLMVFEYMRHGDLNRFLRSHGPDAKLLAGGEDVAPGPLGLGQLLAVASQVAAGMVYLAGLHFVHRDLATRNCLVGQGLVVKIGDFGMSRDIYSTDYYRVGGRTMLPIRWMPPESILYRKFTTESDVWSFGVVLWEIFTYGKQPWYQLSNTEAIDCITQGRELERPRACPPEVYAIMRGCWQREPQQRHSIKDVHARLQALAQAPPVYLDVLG
Description: as §5, §6

Series [4] deals with T1, TRKA. Kind of series: HTRF kinase activity assay, TRKA. In kind it is biochemical. As to conditions: 90 μM ATP. The protocol: The IC50 values of the compounds were calculated using XLFIT5 (IDBS) software.
The subject of the next series is Ba/F3 LMNA-NTRK1-G595R. Kind of series: Cell proliferation inhibition (CellTiter-Glo), Ba/F3 LMNA-NTRK1-G595R. In kind it is cell-based. As to conditions: Mus musculus, BaF3, 72 h, test batch marked *.
Description: as §1
(§7) Six cell lines including Ba/F3 LMNA-NTRK1-WT, Ba/F3 LMNA-NTRK1-G595R, Ba/F3 ETV6-NTRK2-WT, Ba/F3 ETV6-NTRK2-G639R, Ba/F3 ETV6-NTRK2-G639R and Ba/F3 ETV6-NTRK3-G623R were used in this experiment.
as §3
as §4, with “3000 cell/well were seeded in 96-well plate (Corning, Cat #3603). The cells were incubated overnight with 5% CO2, 95% humidity at 37° C.” left out, “signal.” for “signal. The luminescent value was collected by SpectraMax microplate detector (MD, 2104-0010A).”

The test system of the next series is Ba/F3 LMNA-NTRK1-WT. Kind of series: Cell proliferation inhibition (CellTiter-Glo), Ba/F3 LMNA-NTRK1-WT. In kind it is cell-based. As to conditions: Mus musculus, BaF3, 72 h, test batch marked *.
Description: as §1, §7, §3
as §4, with “3000 cell/well were seeded in 96-well plate (Corning, Cat #3603). The cells were incubated overnight with 5% CO2, 95% humidity at 37° C.” left out, “signal.” for “signal. The luminescent value was collected by SpectraMax microplate detector (MD, 2104-0010A).”

Read-outs that look alike come from different tables or passages of the source.

Chain of TRKB (Q16620 32-822): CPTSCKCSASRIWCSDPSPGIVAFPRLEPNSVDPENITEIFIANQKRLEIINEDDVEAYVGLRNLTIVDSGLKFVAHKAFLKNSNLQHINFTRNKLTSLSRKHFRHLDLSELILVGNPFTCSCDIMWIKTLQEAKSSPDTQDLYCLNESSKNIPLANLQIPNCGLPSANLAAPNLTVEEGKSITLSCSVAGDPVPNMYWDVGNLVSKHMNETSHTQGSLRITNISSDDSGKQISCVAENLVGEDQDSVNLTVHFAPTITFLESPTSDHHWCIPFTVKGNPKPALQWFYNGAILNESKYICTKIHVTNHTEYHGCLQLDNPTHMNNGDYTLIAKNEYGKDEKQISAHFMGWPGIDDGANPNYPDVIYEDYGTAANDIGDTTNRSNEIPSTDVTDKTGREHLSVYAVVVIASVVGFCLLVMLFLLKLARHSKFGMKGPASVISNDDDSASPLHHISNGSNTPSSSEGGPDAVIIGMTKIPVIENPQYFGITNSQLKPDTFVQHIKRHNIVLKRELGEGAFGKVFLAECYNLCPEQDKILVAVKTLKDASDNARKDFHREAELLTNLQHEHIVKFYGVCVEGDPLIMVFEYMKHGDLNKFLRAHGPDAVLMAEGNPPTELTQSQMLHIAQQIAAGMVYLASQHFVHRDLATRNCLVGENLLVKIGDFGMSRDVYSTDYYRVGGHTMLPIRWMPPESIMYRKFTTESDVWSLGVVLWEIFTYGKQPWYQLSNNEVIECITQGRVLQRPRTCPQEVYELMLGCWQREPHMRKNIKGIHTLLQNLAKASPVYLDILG
Chain of ROS1 (P08922 28-2347): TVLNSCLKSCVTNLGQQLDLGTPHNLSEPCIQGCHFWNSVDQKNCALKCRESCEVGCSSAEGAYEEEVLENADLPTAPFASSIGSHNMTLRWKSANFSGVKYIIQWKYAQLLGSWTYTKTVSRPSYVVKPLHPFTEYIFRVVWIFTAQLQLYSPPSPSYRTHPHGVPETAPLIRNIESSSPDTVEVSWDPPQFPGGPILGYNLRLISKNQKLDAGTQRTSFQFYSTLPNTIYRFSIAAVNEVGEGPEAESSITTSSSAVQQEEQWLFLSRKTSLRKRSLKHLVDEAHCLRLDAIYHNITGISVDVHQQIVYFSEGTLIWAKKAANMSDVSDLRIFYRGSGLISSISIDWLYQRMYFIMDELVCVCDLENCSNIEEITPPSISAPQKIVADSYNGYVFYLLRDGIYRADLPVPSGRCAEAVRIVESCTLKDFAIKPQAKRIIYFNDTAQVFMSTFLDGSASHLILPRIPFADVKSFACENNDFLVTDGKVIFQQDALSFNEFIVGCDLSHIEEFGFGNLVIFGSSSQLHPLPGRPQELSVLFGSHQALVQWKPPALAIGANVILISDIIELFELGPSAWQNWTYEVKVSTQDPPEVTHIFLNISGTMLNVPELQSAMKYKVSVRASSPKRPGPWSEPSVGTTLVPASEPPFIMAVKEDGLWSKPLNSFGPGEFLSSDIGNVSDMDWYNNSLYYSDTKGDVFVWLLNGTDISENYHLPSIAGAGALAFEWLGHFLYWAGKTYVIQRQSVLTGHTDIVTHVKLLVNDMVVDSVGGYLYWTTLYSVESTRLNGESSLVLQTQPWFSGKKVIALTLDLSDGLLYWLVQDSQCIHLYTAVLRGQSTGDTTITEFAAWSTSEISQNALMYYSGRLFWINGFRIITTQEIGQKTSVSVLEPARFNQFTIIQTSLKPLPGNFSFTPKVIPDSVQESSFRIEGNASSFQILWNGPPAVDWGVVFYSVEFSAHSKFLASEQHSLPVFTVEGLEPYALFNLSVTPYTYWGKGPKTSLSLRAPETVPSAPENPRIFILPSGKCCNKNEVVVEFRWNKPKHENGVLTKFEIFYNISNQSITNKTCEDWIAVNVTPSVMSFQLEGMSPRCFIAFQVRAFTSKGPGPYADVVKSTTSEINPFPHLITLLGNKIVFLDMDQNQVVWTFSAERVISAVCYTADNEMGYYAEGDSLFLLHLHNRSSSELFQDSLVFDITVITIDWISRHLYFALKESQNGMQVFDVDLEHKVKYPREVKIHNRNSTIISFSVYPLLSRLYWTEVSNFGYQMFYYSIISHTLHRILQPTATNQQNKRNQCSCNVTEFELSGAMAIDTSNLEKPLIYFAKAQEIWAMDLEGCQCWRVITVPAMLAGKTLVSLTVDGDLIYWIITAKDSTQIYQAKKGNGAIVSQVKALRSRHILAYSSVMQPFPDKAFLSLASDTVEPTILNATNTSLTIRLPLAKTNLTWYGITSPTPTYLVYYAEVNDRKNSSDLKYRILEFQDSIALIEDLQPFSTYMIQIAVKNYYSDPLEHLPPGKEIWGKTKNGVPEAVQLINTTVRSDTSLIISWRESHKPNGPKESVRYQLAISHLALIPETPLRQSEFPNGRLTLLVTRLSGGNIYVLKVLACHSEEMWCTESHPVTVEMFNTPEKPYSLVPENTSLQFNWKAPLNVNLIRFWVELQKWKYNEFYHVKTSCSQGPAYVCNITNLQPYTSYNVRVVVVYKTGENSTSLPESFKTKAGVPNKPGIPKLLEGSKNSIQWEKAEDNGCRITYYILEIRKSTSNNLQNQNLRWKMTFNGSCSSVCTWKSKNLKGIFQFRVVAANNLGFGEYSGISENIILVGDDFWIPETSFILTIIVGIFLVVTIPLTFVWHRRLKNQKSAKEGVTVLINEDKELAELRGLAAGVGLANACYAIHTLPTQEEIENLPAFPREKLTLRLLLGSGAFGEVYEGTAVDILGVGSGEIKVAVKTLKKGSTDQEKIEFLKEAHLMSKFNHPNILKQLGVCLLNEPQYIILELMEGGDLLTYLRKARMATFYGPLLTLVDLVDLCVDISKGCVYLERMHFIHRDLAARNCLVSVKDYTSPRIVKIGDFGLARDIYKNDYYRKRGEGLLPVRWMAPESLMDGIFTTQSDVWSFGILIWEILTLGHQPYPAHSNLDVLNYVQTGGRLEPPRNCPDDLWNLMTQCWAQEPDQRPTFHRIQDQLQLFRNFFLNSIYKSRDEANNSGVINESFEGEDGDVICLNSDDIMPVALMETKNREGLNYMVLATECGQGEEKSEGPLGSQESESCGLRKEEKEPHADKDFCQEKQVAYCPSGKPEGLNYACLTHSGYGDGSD
Description for TRKB: (§8) The inhibitory activity of compounds on TRKA, TRKB, TRKC and ROS1 kinase was analyzed with Mobility shift assay. The screening platform is MSA based microfluidic chip technology, which applies the basic concept of capillary electrophoresis to microfluidic environment. The substrate used in the experiment is a poly-peptide labeled with fluorescent. Under the catalysis of enzyme in the reaction system, the substrate is transformed into a product, with the charge changed accordingly. MSA technology could detect the substrate and the product with different charge separately.
(§9) The compound powder was dissolved in 100% DMSO (Sigma, Cat. D8418-1l) to prepare a 10 mM storage solution. […] The reaction was carried out at room temperature for 30 min/40 min/20 min/20 min respectively. After the reaction was terminated, the conversion rate was read by Caliper EZ Reader II.
(§10) Conversion %_Min: mean value of negative control, representing the conversion rate without enzyme activity;
(§11) Conversion %_Max: mean value of positive control, which represents the conversion rate reading without compound inhibition.
(§12) Taking the log value of concentration as X axis and the percentage inhibition rate as Y axis, the dose response curve was fitted by the analysis software GraphPad Prism 5, thus the IC50 value of each compound on enzyme activity inhibition was obtained.
Description for TRKC: as §8, §9, §10, §11, §12

For the molecule `C[C@H]1CNC(=O)c2cnn3ccc(nc23)N[C@H](C)c2cc(F)ccc2O1` [TPX-0005, reference compound], the IC50 with Ba/F3 ETV6-NTRK2-G639R amounted to 86.6 nM; with Ba/F3 ETV6-NTRK3-WT, 0.8 nM; in the series with Ba/F3 LMNA-NTRK3-G623R, 9 nM; in the series on Ba/F3 ETV6-NTRK2-WT it was 2.5 nM. Besides, the partition ratio (Kp) in series [1] (brain/plasma, AUC0-inf ratio) stood at 0.17. For the same molecule, the AUC(0-inf) was 2.35 µM·h in series [1] (brain, read-out: AUC0-inf Brain); 13.9 µM·h in [1] (plasma, read-out: AUC0-inf Plasma); 2950 ng·h/mL in [2]. For the same molecule, in [2], the Cmax was determined as 503 ng/mL. For the same molecule, the Tmax in series [2] came out at 1.33 h. The molecule also had a half-life in [2] of 3.55 h.
Turning to `C[C@@H]1c2cc(F)ccc2OCCOC(=O)c2cnn3ccc(nc23)N1C` [Example 23, (R,1^3E,1^4E)-4^5-fluoro-2,3-dimethyl-5,8-dioxa-2-aza-1(5,3)-pyrazolo[1,5-a]pyrimidina-4(1,2)-benzenacyclononaphan-9-one], the IC50 turned out to be 0.48 nM on TRKB, 0.63 nM at TRKC, 4.8 nM at ROS1 and 0.39 nM on TRKA [3].
For `C[C@H]1Nc2ccn3ncc(c3n2)C(=O)OCCSc2ccc(F)cc21` [Example 25, (R,1^3E,1^4E)-4^5-fluoro-3-methyl-8-oxa-5-thia-2-aza-1(5,3)-pyrazolo[1,5-a]pyrimidina-4(1,2)-benzenacyclononaphan-9-one], the IC50 stood at 1.6 nM on TRKB, 1.1 nM at TRKC, 1.2 nM at ROS1 and 1.1 nM on TRKA [3].
At TRKA [4], `C[C@H]1Oc2cc(cnc2N)-c2c(nn(C)c2C#N)CN(C)C(=O)c2ccc(F)cc21` [Lorlatinib] registered an IC50 of 6.2 nM.
In the case of `C[C@H]1Nc2ccn3ncc(c3n2)C(=O)OCCOc2ccc(F)cc21` [Example 13, (R,1^3E,1^4E)-4^5-fluoro-3-methyl-5,8-dioxa-2-aza-1(5,3)-pyrazolo[1,5-a]pyrimidina-4(1,2)-benzenacyclononaphan-9-one], the IC50 at TRKB is 0.9 nM; on TRKC, 0.73 nM; at ROS1, 1.9 nM; at TRKA [3], 0.62 nM.
With `CCc1cc2c(cc1N1CCC(N3CCOCC3)CC1)C(C)(C)c1[nH]c3cc(C#N)ccc3c1C2=O` [Alectinib], the IC50 at TRKA [4] came out at 60.4 nM.
For the molecule `O=C(Nc1cnn2ccc(N3CCC[C@@H]3c3cc(F)ccc3F)nc12)N1CC[C@H](O)C1` [LOXO-101, reference compound], the IC50 in the series on Ba/F3 LMNA-NTRK1-G595R was determined as 2170 nM; in the series with Ba/F3 LMNA-NTRK1-WT, 47.4 nM; in the series with Ba/F3 ETV6-NTRK2-G639R (72 hrs, test batch marked *), 8180 nM; in the series on Ba/F3 ETV6-NTRK3-WT (72 hrs, test batch marked *), 6.8 nM; in the series with Ba/F3 ETV6-NTRK2-WT (72 hrs, test batch marked *), 75.3 nM.
Regarding `Cc1cc(Nc2ncc(Cl)c(Nc3ccccc3S(=O)(=O)C(C)C)n2)c(OC(C)C)cc1C1CCNCC1` [Ceritinib], the IC50 on TRKA [4] is 182 nM.
Regarding `C[C@H]1Nc2ccn3ncc(c3n2)C(=O)OCC(F)(F)Oc2ccc(F)cc21` [Example 24, (R,1^3E,1^4E)-4^5,6,6-trifluoro-3-methyl-5,8-dioxa-2-aza-1(5,3)-pyrazolo[1,5-a]pyrimidina-4(1,2)-benzenacyclononaphan-9-one], the IC50 at TRKB is 0.6 nM; at TRKC it was 0.75 nM; at ROS1, 0.29 nM; on TRKA [3], 0.56 nM.
The like results for `C[C@@H]1COc2ccc(F)cc2[C@@H](C)Nc2ccn3ncc(c3n2)C(=O)O1` [Example 6, (1^3E,1^4E,3R,7R)-4^5-fluoro-3,7-dimethyl-5,8-dioxa-2-aza-1(5,3)-pyrazolo[1,5-a]pyrimidina-4(1,2)-benzenacyclononaphan-9-one] were, in that order, 1.2 nM, 1.2 nM, 0.78 nM and 0.75 nM.
In the same order, the values of `C[C@H]1COC(=O)c2cnn3ccc(nc23)N[C@H](C)c2cc(F)ccc2S1` [Example 9, (1^3E,1^4E,3R,6S)-4^5-fluoro-3,6-dimethyl-8-oxa-5-thia-2-aza-1(5,3)-pyrazolo[1,5-a]pyrimidina-4(1,2)-benzenacyclononaphan-9-one] are 0.86 nM, 0.76 nM, 0.54 nM and 0.59 nM.

The values are drawn from patent US12129258B2, “Diaryl macrocyclic compound and pharmaceutical composition, and use thereof” (PrimeGene (Beijing) Co., Ltd., priority 2018, dated 2024).
